Measured values: patent publication EP0510620A1, “Indophenol substituted oligomaltosides as substrates for alpha-amylase” (BOEHRINGER MANNHEIM GMBH, priority 1991, dated 1992)
Marks after values point to notes of the source that are not given here.

Target: T1, Human-Pankreas-α-Amylase (HPA) (Homo sapiens, UniProt P04746)
T1 sequence (P04746 16-511): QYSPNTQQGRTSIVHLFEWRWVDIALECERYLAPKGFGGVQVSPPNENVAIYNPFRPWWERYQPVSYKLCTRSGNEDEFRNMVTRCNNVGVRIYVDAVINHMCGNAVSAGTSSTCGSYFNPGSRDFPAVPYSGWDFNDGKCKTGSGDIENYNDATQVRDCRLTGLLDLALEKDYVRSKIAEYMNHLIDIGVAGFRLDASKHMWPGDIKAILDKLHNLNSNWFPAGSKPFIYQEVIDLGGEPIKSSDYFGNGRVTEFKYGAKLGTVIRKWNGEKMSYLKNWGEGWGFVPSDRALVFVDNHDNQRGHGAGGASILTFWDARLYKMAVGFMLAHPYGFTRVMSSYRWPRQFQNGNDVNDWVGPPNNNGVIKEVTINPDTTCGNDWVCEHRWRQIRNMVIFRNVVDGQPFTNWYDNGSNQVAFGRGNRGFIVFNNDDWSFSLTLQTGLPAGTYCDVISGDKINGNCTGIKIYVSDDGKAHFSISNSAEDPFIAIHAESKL
Assay: direct α-amylase determination with synthetic substrates, without auxiliary enzymes (absorbance change per minute)
Assay type: biochemical
Settings: for 400 mMol/l KSCN HPA [ΔE/min]: activator 400 mMol/l KSCN, read at the wavelength given per substrate (645 or 578 nm); for 400 mmol/l KSCN HPA relativer Wert [ΔE/min]: relative value (Beispiel 1 = 1)
Excerpt: Es wurde mit den in der folgenden Tabelle und in Fig. 1 aufgeführten Substraten, die Amylaseaktivität von Human-Pankreas-α-Amylase (HPA) und Human-Speichel-α-Amylase (HSA) untersucht. Die folgenden Reagenzien wurden verwendet:
Substrat (wie in der Tabelle angegeben) 49,3 mMol/l
Reagenz 1 enthält gegebenenfalls noch Aktivator, wie in Tabelle angegeben, sowie - als Hemmstoffe für die Speichel-α-Amylase- von den Zellinien NCACC 84122003 (MAK I) und NCACC 84111301 (MAK II) produzierte Antikörper. Zur Durchführung der Bestimmung wird 1,00 ml Reagenz 1 mit 0,02 ml der Probe gemischt und auf 37°C temperiert. Anschließend wird 0,10 ml Reagenz 2 zugegeben, gemischt und nach 1,2 und 3 Minuten die Extinktion bei der jeweiligen Meßwellenlänge (s. Tabelle) abgelesen. Es wird der Mittelwert der Extinktionsdifferenz/Minute gebildet.
Die Endkonzentrationen im Testansatz betragen:
Als Probe wird Humanpankreas-Amylase (HPA) verwendet. Die Messung erfolgt bei 37°C bei der jeweils angegebenen Meßwellenlänge. Die Ergebnisse sind der Tabelle zu entnehmen. Tabelle
Verwendung der gemäß Beispiel 4 und Beispiel 5 hergestellten Substanzen als Substrate zur direkten α-Amylase-Bestimmung.
Es wird analog zu Beispiel 2 vorgegangen.

[1] = MES buffer pH 6,0, 37°C, substrate 4,44 mmol/l
[2] = measured at pH 8,0, 595 or 573 nm

Compound	400 mMol/l KSCN HPA [ΔE/min] [1]	400 mmol/l KSCN HPA relativer Wert [ΔE/min] [2]	further results
O=C1C(Cl)=CC(=Nc2ccc(O[C@H]3O[C@H](CO)[C@@H](O[C@H]4O[C@H](CO)[C@@H](O[C@H]5O[C@H](CO)[C@@H](O)[C@H](O)[C@H]5O)[C@H](O)[C@H]4O)[C@H](O)[C@H]3O)c(Cl)c2)C=C1Cl [Beispiel 1, 2',2,6-Trichlor-indophenyl-α-maltotriosid]	0,063 ΔE/min		Spaltung durch α-Amylase als direktes Substrat (in words, in the absence of auxiliary enzymes): hervorragend durch α-Amylase in Abwesenheit von Hilfsenzymen spaltbar; 400 mmol/l KSCN HPA relativer Wert [ΔE/min] (analogous to Beispiel 2 (pH 6,0, 37°C), 645 nm): 1 ΔE/min
O=C1C(Cl)=CC(=Nc2ccc(O[C@H]3O[C@H](CO)[C@@H](O[C@H]4O[C@H](CO)[C@@H](O[C@H]5O[C@H](CO)[C@@H](O)[C@H](O)[C@H]5O)[C@H](O)[C@H]4O)[C@H](O)[C@H]3O)cc2)C=C1Cl [2,6-Dichlor-indophenylα-maltotriosid, reference compound]	0 ΔE/min		
CC1=CC(=Nc2ccc(O[C@H]3O[C@H](CO)[C@@H](O[C@H]4O[C@H](CO)[C@@H](O[C@H]5O[C@H](CO)[C@@H](O)[C@H](O)[C@H]5O)[C@H](O)[C@H]4O)[C@H](O)[C@H]3O)c(Cl)c2)C=CC1=O [Beispiel 4, 2'-Chlor-2-methyl-indophenyl-α-maltotriosid]		0,35* ΔE/min	
CC1=CC(=Nc2ccc(O[C@H]3O[C@H](CO)[C@@H](O[C@H]4O[C@H](CO)[C@@H](O[C@H]5O[C@H](CO)[C@@H](O)[C@H](O)[C@H]5O)[C@H](O)[C@H]4O)[C@H](O)[C@H]3O)c(Cl)c2)C=C(C)C1=O [Beispiel 5, 2'-Chlor-2,6-dimethyl-indophenyl-α-maltotriosid]		0,27* ΔE/min	
CC1=CC(=Nc2ccc(O[C@H]3O[C@H](CO)[C@@H](O[C@H]4O[C@H](CO)[C@@H](O[C@H]5O[C@H](CO)[C@@H](O)[C@H](O)[C@H]5O)[C@H](O)[C@H]4O)[C@H](O)[C@H]3O)cc2)C=C(C)C1=O [2,6-Dimethyl-indophenylα-maltotriosid, reference compound]			HPA [ΔE/min] (with 150 mmol/l NaN₃ instead of KSCN, MES buffer pH 6,0, 37°C, substrate 4,44 mmol/l, 578 nm): 0* ΔE/min
